In paper PMC5007854, “β-Nitrostyrenes as Potential Anti-leishmanial Agents” (Frontiers in Microbiology, 2016):
≈ marks a conversion by molar mass, not a printed value. Read-outs that look alike come from different tables or passages of the source.

How the values were obtained:
[1] = tested on: Aspergillus niger ATCC 16404; assay: Broth microdilution antifungal susceptibility (MIC/MFC); format: cell-based; settings: for MIC / MFC: Aspergillus niger
From the text: (§1) One reference each of the following species was used for their in vitro susceptibility to β-nitrostyrene in this study: Staphylococcus aureus ATCC 29213, Staphylococcus epidermidis ATCC 14990, Escherichia coli ATCC 25922, Pseudomonas aeruginosa ATCC 27853, Candida albicans ATCC 90028, Candida glabrata ATCC 90030, Aspergillus fumigatus ATCC 16424 and Aspergillus niger ATCC 16404. These strains were procured from the American Type Culture Collection (ATCC, Manassas, VA, USA).
(§2) The antibacterial and antifungal activities of the β-nitrostyrenes were performed by broth microdilution methods as per the guidelines of Clinical and Laboratory Standard Institute (Wayne, [1998], [2008a],[b],[c]) by using Mueller-Hinton broth (MHB; Becton-Dickinson, Cockeysville, MD, USA) supplemented with calcium (25 mg/L) and magnesium (12.5 mg/L) for bacterial strains while as RPMI 1640 medium with L-glutamine and without sodium bicarbonate, buffered to pH 7.0 with 0.165 M 3-(N-morpholino) propanesulfonic acid (MOPS; both from Sigma) was used for fungal strains. Stock solutions were prepared in 100% dimethyl sulfoxide (DMSO; Sigma; distilled water was used for ciprofloxacin), with a final DMSO concentration of 1% (vol. per vol.) and two-fold serial dilutions were prepared in media in amounts of 100 μL per well in 96-well U-bottom microtiter plates (Tarsons, Kolkata, India) to yield twice the final concentration required for testing, which ranged from 64 to 0.12 μg/mL for β-nitrostyrenes and 16 to 0.03 μg/mL for ciprofloxacin as well as amphotericin B. Stock inoculum suspensions of the bacteria, Candida species and Aspergillus species were prepared in sterile normal saline (0.85%) containing 0.05% polysorbate 20 (NST) from overnight (3 to 5-day old for Aspergillus species) strains grown on Trypticase soy agar (TSA; Becton-Dickinson) and potato dextrose agar (Difco Laboratories, Detroit, MI, USA) respectively at 35°C. Inocula were verified for each assay by plating onto agar plates for colony enumeration. These suspensions were further diluted in the respective test medium and a 100 μl volume of this diluted inoculum was added to each well of the plate, resulting in a final inoculum concentration of approximately 5 × 10^5 CFU/mL for bacter1ia, (Wayne, [2008a]) approximately 2.5 × 10^4 CFU/ml for Candida species (Pfaller et al., [2004]) while as 0.4 × 10^4 to 5 × 10^4 CFU/mL for Aspergillus species (Wayne, [2008c]). Untreated growth control, vehicle control (DMSO) and sterility control wells were included for each isolate tested. Ciprofloxacin and amphotericin B served as the standard drug controls for bacterial and fungal strains, respectively. The microtiter plates were incubated at 35°C for 24 h for bacterial strains and 48 h for fungal strains. The plates were read visually and the minimum inhibitory concentration (MIC) was defined as the lowest concentration of test sample that prevented visible growth with respect to the growth control.
(§3) The minimum bactericidal concentration (MBC) and minimum fungicidal concentration (MFC) were determined by plating 100 μl volumes on agar plates from the wells showing no visible growth (clear MIC well). The plates were incubated as described above in MIC measurements. […] All experiments were conducted twice in duplicates on separate occasions with freshly prepared inoculums and stock solutions.

[2] = tested on: Candida glabrata ATCC 90030; assay: as above; format: cell-based; settings: Nakaseomyces glabratus; for MIC: broth microdilution, 35°C, 48 h, read-out: MIC, Cg ATCC 90030
From the text: as §1, §2, §3

[3] = tested on: Candida albicans ATCC 90028; assay: as above; format: cell-based; settings: for MIC / MFC: Candida albicans
From the text: as §1, §2, §3

[4] = tested on: Aspergillus fumigatus ATCC 16424; assay: as above; format: cell-based; settings: for MIC / MFC: Aspergillus fumigatus
From the text: as §1, §2, §3

[5] = tested on: L. donovani promastigotes; assay: Anti-leishmanial screening at 100 μM, parasite viability by microscopy; format: cell-based, Leishmania donovani; settings: 100 μM, 72 h, phase contrast microscope
Method: L. donovani parasites (MHOM/IN/83/AG83) were maintained in vivo in BALB/c mice. Promastigotes were routinely cultured at 22°C in medium M199 supplemented with 10% heat inactivated fetal bovine serum (FBS, HiMedia Laboratories, Mumbai, India), penicillin 100 (IU/ml), streptomycin (100 μg/ml). Log phase promastigotes were sub-cultured every 72–96 h, the inoculum being 2 × 10^6 cells/ml (Afrin et al., [2002]).
Nitrostyrine series were screened for their antileishmanial activity against L. donovani promastigotes in vitro. Promastigotes of L. donovani (2 × 10^6 cells/mL) in M199 medium were incubated at 22°C for 72 h with each compound at a concentration of 100 μM. Amphotericin B (AmB) served as reference drug, 0.2% DMSO was used as solvent control. Parasites with media alone were taken as control. Parasite viability was determined microscopically after 72 h (Islamuddin et al., [2014b]).

[6] = tested on: Pseudomonas aeruginosa ATCC 27853; assay: Broth microdilution antibacterial susceptibility (MIC/MBC); format: cell-based; settings: for MIC / MBC: Pseudomonas aeruginosa
From the text: as §1, §2, §3

[7] = tested on: Staphylococcus epidermidis ATCC 14990; assay: as above; format: cell-based; settings: for MIC / MBC: Staphylococcus epidermidis
From the text: as §1, §2, §3

[8] = tested on: Staphylococcus aureus ATCC 29213; assay: as above; format: cell-based; settings: Staphylococcus aureus; for MIC: broth microdilution, 35°C, 24 h, read-out: MIC, Sa ATCC 29213
From the text: as §1, §2, §3

[9] = tested on: Escherichia coli ATCC 25922; assay: as above; format: cell-based; settings: for MIC / MBC: Escherichia coli
From the text: as §1, §2, §3

[10] = broth microdilution, 35°C, 48 h
[11] = broth microdilution, 35°C, 24 h
[12] = ATCC16404, 48 h, broth microdilution, 35°C, 48 h, read-out: MIC, An ATCC 16404
[13] = ATCC16404, ≥99.9% reduction of original inoculum, read-out: MFC, An ATCC 16404
[14] = ATCC90030, ≥99.9% reduction of original inoculum, read-out: MFC, Cg ATCC 90030
[15] = ATCC90028, 48 h, broth microdilution, 35°C, 48 h, read-out: MIC, Ca ATCC 90028
[16] = ATCC90028, ≥99.9% reduction of original inoculum, read-out: MFC, Ca ATCC 90028
[17] = ATCC16424, 48 h, broth microdilution, 35°C, 48 h, read-out: MIC, Af ATCC 16424
[18] = ATCC16424, ≥99.9% reduction of original inoculum, read-out: MFC, Af ATCC 16424
[19] = ATCC27853, 24 h, broth microdilution, 35°C, 24 h, read-out: MIC, Pa ATCC 27853
[20] = ATCC27853, ≥99.9% reduction of original inoculum, read-out: MBC, Pa ATCC 27853
[21] = ATCC14990, 24 h, broth microdilution, 35°C, 24 h, read-out: MIC, Se ATCC 14990
[22] = ATCC14990, ≥99.9% reduction of original inoculum, read-out: MBC, Se ATCC 14990
[23] = ATCC29213, ≥99.9% reduction of original inoculum, read-out: MBC, Sa ATCC 29213
[24] = ATCC25922, 24 h, broth microdilution, 35°C, 24 h, read-out: MIC, Ec ATCC 25922
[25] = ATCC25922, ≥99.9% reduction of original inoculum, read-out: MBC, Ec ATCC 25922

O=[N+]([O-])/C=C/c1ccc([N+](=O)[O-])cc1 [Compound 7, 1-nitro-4-((E)-2-nitrovinyl) benzene]
MIC ([1]; ATCC16404, 48 h, read-out: MIC, An ATCC 16404, broth microdilution, 35°C, 48 h): 2 to 4 µg/mL (≈ 10.3 to 20.6 µM) | MFC ([1]; ATCC16404, read-out: MFC, An ATCC 16404): 2 µg/mL (≈ 10.3 µM) | MIC, An ATCC 16404 [1, 10]: 2 µg/mL (≈ 10.3 µM) | MFC ([2]; ATCC90030, read-out: MFC, Cg ATCC 90030): 4 µg/mL (≈ 20.6 µM) | MIC ([3]; ATCC90028, 48 h, read-out: MIC, Ca ATCC 90028, broth microdilution, 35°C, 48 h): 4 to 32 µg/mL (≈ 20.6 to 165 µM) | MFC ([3]; ATCC90028, read-out: MFC, Ca ATCC 90028): 4 µg/mL (≈ 20.6 µM) | MIC, Ca ATCC 90028 [3, 10]: 4 µg/mL (≈ 20.6 µM) | MIC ([4]; ATCC16424, 48 h, read-out: MIC, Af ATCC 16424, broth microdilution, 35°C, 48 h): 4 to 8 µg/mL (≈ 20.6 to 41.2 µM) | MFC ([4]; ATCC16424, read-out: MFC, Af ATCC 16424): 4 µg/mL (≈ 20.6 µM) | MIC, Af ATCC 16424 [4, 10]: 4 µg/mL (≈ 20.6 µM) | Parasite viability after treatment [5]: All the parasites were found to be dead | MIC ([6]; ATCC27853, 24 h, read-out: MIC, Pa ATCC 27853, broth microdilution, 35°C, 24 h): 16 to 32 µg/mL (≈ 82.4 to 165 µM) | MBC ([6]; ATCC27853, read-out: MBC, Pa ATCC 27853): 32 µg/mL (≈ 165 µM) | MIC, Pa ATCC 27853 [6, 11]: 16 µg/mL (≈ 82.4 µM) | MIC ([7]; ATCC14990, 24 h, read-out: MIC, Se ATCC 14990, broth microdilution, 35°C, 24 h): 2 to 16 µg/mL (≈ 10.3 to 82.4 µM) | MBC ([7]; ATCC14990, read-out: MBC, Se ATCC 14990): 4 µg/mL (≈ 20.6 µM) | MIC, Se ATCC 14990 [7, 11]: 4 µg/mL (≈ 20.6 µM) | MBC ([8]; ATCC29213, read-out: MBC, Sa ATCC 29213): 8 µg/mL (≈ 41.2 µM) | MIC ([9]; ATCC25922, 24 h, read-out: MIC, Ec ATCC 25922, broth microdilution, 35°C, 24 h): 16 to 32 µg/mL (≈ 82.4 to 165 µM) | MBC ([9]; ATCC25922, read-out: MBC, Ec ATCC 25922): 32 µg/mL (≈ 165 µM) | MIC, Ec ATCC 25922 [9, 11]: 16 µg/mL (≈ 82.4 µM)

O=[N+]([O-])/C=C/c1ccc(O)cc1 [Compound 16, 4-((E)-2-nitrovinyl) phenol]
MIC [1, 12]: 8 µg/mL (≈ 48.4 µM) | MFC [1, 13]: 16 µg/mL (≈ 96.9 µM) | MIC ([2]; ATCC90030, 48 h): 16 µg/mL (≈ 96.9 µM) | MFC [2, 14]: 16 µg/mL (≈ 96.9 µM) | MIC [3, 15]: 32 µg/mL (≈ 194 µM) | MFC [3, 16]: 32 µg/mL (≈ 194 µM) | MIC [4, 17]: 16 µg/mL (≈ 96.9 µM) | MFC [4, 18]: 16 µg/mL (≈ 96.9 µM) | MIC [6, 19]: > 64 µg/mL | MBC [6, 20]: > 64 µg/mL | MIC [7, 21]: 64 µg/mL (≈ 388 µM) | MBC [7, 22]: 64 µg/mL (≈ 388 µM) | MIC ([8]; ATCC29213, 24 h): 64 µg/mL (≈ 388 µM) | MBC [8, 23]: > 64 µg/mL | MIC [9, 24]: 64 µg/mL (≈ 388 µM) | MBC [9, 25]: > 64 µg/mL

O=[N+]([O-])/C=C/c1cccc(O)c1 [Compound 19, 3-((E)-2-nitrovinyl) phenol]
MIC ([1]; ATCC16404, broth microdilution, 35°C, 48 h, read-out: MIC, An ATCC 16404): 64 µg/mL (≈ 388 µM) | MFC [1, 13]: 64 µg/mL (≈ 388 µM) | MIC ([2]; ATCC90030): 16 µg/mL (≈ 96.9 µM) | MFC [2, 14]: 16 µg/mL (≈ 96.9 µM) | MIC ([3]; ATCC90028, broth microdilution, 35°C, 48 h, read-out: MIC, Ca ATCC 90028): 64 µg/mL (≈ 388 µM) | MFC [3, 16]: > 64 µg/mL | MIC ([4]; ATCC16424, broth microdilution, 35°C, 48 h, read-out: MIC, Af ATCC 16424): 64 µg/mL (≈ 388 µM) | MFC [4, 18]: > 64 µg/mL | MIC ([6]; ATCC27853, broth microdilution, 35°C, 24 h, read-out: MIC, Pa ATCC 27853): > 64 µg/mL | MBC [6, 20]: > 64 µg/mL | MIC ([7]; ATCC14990, broth microdilution, 35°C, 24 h, read-out: MIC, Se ATCC 14990): 64 µg/mL (≈ 388 µM) | MBC [7, 22]: > 64 µg/mL | MIC ([8]; ATCC29213): > 64 µg/mL | MBC [8, 23]: > 64 µg/mL | MIC ([9]; ATCC25922, broth microdilution, 35°C, 24 h, read-out: MIC, Ec ATCC 25922): > 64 µg/mL | MBC [9, 25]: > 64 µg/mL

O=[N+]([O-])/C=C/c1c[nH]c2ccccc12 [Compound 28, 3-((E)-2-nitrovinyl)-1H-indole]
MIC [1, 12]: 8 µg/mL (≈ 42.5 µM) | MFC [1, 13]: 16 µg/mL (≈ 85 µM) | MIC ([2]; ATCC90030, 48 h): 16 µg/mL (≈ 85 µM) | MFC [2, 14]: 16 µg/mL (≈ 85 µM) | MIC [3, 15]: 32 µg/mL (≈ 170 µM) | MFC [3, 16]: 32 µg/mL (≈ 170 µM) | MIC [4, 17]: 16 µg/mL (≈ 85 µM) | MFC [4, 18]: 16 µg/mL (≈ 85 µM) | MIC [6, 19]: > 64 µg/mL | MBC [6, 20]: > 64 µg/mL | MIC [7, 21]: 64 µg/mL (≈ 340 µM) | MBC [7, 22]: 64 µg/mL (≈ 340 µM) | MIC ([8]; ATCC29213, 24 h): 64 µg/mL (≈ 340 µM) | MBC [8, 23]: > 64 µg/mL | MIC [9, 24]: 64 µg/mL (≈ 340 µM) | MBC [9, 25]: > 64 µg/mL
